Results published in US11993563B2, “Solid compositions of cocrystals of cannabinoids” (priority 2018, dated 2024).

What was measured:
[1] = Stability of the cocrystal on heating (DSC experiments); format: physicochemical
Method: The cocrystal Form VII of the present invention may also be further characterized by DSC (differential scanning calorimetry) analysis as shown in FIG. 15. […] The cocrystal Form VII of the present invention may also be further characterized by having a melting range of about 109-120° C.
The cocrystal Form XVIII of the present invention may also be further characterized by DSC (differential scanning calorimetry) analysis as shown in FIG. 35.
The cocrystal Form XIX of the present invention may also be further characterized by DSC (differential scanning calorimetry) analysis as shown in FIG. 37.
DSC analyses were recorded with a Mettler Toledo DSC2. For cocrystals Forms […], and XI-XIX, the sample was weighed into a 40 μL aluminium crucible with a pinhole lid and was heated from 25 to 300° C. at a rate of 10° C./min, under nitrogen (50 mL/min). For cocrystals Form VII and VIII, the sample was weighed into a 40 μL aluminium crucible with a pinhole lid and was heated from 25 to 150° C. at a rate of 10° C./min, under nitrogen (50 mL/min).

[2] = in tablet
Method: (§1) X-ray power Diffraction (XRPD) measurements were performed at ambient conditions on a PANalytical X'Pert PRO θ-θ diffractometer of 240 mm of radius in reflection geometry, equipped with Cu Kα radiation and a PIXcel detector, operated at 45 kV and 40 mA. Each sample was mounted on a zero-background silicon holder and allowed to spin at 0.25 rev/s during the data collection.

[3] = open vial, accelerated stability conditions 40° C. and 75±5% relative humidity
Method: as §1
The aim of the study is to evaluate the stability of cocrystal Form I of the present invention.
Cocrystal Form I (55 mg) is stored in an open vial and exposed to accelerated stability conditions (40° C. and 75±5% relative humidity) according to ICH guidelines (Guidance for Industry Q1A(R2) Stability Testing of New Drug Substances and Products—available on the website http://www.ich.org/products/guidelines/quality/quality-single/article/stability-testing-of-new-drug-substances-and-products.html on Aug. 4, 2017).

## C=C(C)[C@@H]1CCC(C)=C[C@H]1c1c(O)cc(CCC)cc1O [Form XVIII, cocrystal wherein the cannabinoid is CBDV and L-proline]
[1]
  remained stable after heating up to: up to 90 °C

## CCCCCc1cc(O)c2c(c1)OC(C)(C)[C@@H]1CCC(C)=C[C@@H]21 [Form VII, cocrystal of (−)-(6aR,10aR)-6,6,9-trimethyl-3-pentyl-6a,7,8,10a-tetrahydro-6H-benzo[c]chromen-I-ol and L-proline]
[1]
  remained stable after heating up to: up to 75 °C
[2]
  integrity of the cocrystal after its formulation (XRPD of the tablet): maintained its integrity

## C=C(C)[C@@H]1CCC(C)=C[C@H]1c1c(O)cc(CCCCC)cc1O [Form I, cocrystal of CBD and L-proline]
[2]
  integrity of the cocrystal after its formulation (XRPD of the tablet): maintained its integrity
[3]
  stability according to XRPD: remained stable for at least three weeks

## C=C(C)[C@@H]1CCC(C)=C[C@H]1c1c(O)cc(CCC)cc1O [Form XIX, cocrystal wherein the cannabinoid is CBDV and L-carnitine]
[1]
  remained stable after heating up to: up to 110 °C
